Literature values as cited in patent US20050084931A1, “Human prostaglandin DP receptor variants and methods of using same” (priority 2003, published 2005).
Where two headings read alike, the source gives them in different places.

Molecular target: T1, human DP receptor (Homo sapiens, UniProt Q13258)
T1 sequence (Q13258 1-359): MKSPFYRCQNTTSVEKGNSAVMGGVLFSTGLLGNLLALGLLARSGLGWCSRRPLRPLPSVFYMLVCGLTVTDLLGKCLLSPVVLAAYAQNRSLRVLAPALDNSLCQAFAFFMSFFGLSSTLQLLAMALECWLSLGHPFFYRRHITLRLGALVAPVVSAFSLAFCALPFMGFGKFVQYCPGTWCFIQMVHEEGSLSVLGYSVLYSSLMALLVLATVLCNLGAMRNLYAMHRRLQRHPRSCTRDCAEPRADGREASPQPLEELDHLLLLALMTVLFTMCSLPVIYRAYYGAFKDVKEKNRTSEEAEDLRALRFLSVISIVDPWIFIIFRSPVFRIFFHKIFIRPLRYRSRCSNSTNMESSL

What does the source list for `CCCCC[C@H](O)/C=C/[C@H]1C(=O)C[C@H](O)[C@@H]1C/C=C\CCCC(=O)O` [PGD2, Prostaglandin D2]?
Kd (high-affinity site, read-out: high-affinity binding site): 0.3 nM; Kd (read-out: lower-affinity site): ~13 nM
